The target in data set [1] is T1, Histone-lysine N-methyltransferase EZH2 (Homo sapiens, UniProt Q15910). Description: Displacement of [3H-SAM] from EZH2 in PRC2 complex (unknown origin) incubated for 1 hr by […] assay. Background: Displacement assays read how much labelled ligand stays bound in the presence of the test substance.
For another data set, the species on record is Homo sapiens. Description: Selectivity ratio of IC50 for EZH1 (unknown origin) to IC50 for EZH2 (unknown origin).
Data set [2] can be described thus: Solubility of the compound in water. The format is physicochemical.
A further data set has as its system PC-3. Nature of the data set: Antiproliferative activity against human PC-3 cells assessed as inhibition of cell proliferation incubated for 3 to 7 days followed by replacement of medium containing compound every 3 days by CCK8 assay. The format is functional, cell-based. A general note: Tetrazolium assays rely on reduction of a dye to a coloured formazan, in cell work by metabolically active cells.

The subject of the next data set is SK-OV-3. Description: Antiproliferative activity against human SK-OV-3 cells assessed as inhibition of cell proliferation incubated for 3 to 7 days followed by replacement of medium containing compound every 3 days by CCK8 assay. It counts as functional, cell-based.
Data set [3] deals with T1, Histone-lysine N-methyltransferase EZH2. Description: Inhibition of wild-type EZH2 in PRC2 complex (unknown origin) using monomethylated H3K27 as substrate by radiometric assay.
Data set [4] can be described thus: Inhibition of N-terminal 6xHis SUMO-tagged human EED expressed in Escherichia coli BL21 (DE3)/FITC-labeled EZH2 (39 to 63 residues)(unknown origin) interaction incubated for 2 hrs by fluorescence polarization based competitive assay.
Data set [5] in a line: Binding affinity to PRC2 (unknown origin) assessed as inhibition constant. Further details: species or system Homo sapiens.
Another data set has as its system K562. Nature of the data set: Antiproliferative activity against human K562 cells assessed as inhibition of cell proliferation incubated for 48 hrs by MTT assay. Particulars: K562, 48 h. The format is functional, cell-based.

One may read the IC50 as the point on the concentration scale where inhibition reaches its midpoint. The solubility is the concentration that dissolves in the medium under given conditions. The term Ki denotes a measure of affinity in units of concentration, obtained from inhibition or displacement.

Structures are written as SMILES. Converted amounts (≈) assume the structure as drawn.

T1 sequence (Q15910 whole entry): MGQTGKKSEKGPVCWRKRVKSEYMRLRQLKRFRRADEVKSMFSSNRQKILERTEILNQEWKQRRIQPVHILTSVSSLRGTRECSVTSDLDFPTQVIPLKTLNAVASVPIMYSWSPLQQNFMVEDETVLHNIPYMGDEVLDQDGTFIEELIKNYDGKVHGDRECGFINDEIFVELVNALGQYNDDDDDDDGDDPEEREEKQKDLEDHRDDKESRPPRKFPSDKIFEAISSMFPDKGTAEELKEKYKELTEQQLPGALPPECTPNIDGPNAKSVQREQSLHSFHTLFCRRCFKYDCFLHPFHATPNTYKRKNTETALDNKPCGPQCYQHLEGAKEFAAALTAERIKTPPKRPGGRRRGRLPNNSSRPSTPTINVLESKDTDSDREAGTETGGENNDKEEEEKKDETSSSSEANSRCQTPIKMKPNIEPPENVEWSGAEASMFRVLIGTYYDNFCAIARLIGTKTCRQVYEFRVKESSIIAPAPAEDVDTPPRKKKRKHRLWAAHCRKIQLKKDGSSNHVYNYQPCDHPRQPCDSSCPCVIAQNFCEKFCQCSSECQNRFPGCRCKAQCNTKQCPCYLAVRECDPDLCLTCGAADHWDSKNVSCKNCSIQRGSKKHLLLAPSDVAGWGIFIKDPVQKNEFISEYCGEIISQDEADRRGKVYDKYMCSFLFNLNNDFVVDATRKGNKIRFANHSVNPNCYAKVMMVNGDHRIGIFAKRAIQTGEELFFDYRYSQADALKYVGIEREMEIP

Take `Cc1cc(C)c(CNC(=O)c2cc(C)n(-c3cccc(N4CCOCC4)c3)c2C)c(=O)[nH]1`: the IC50 in data set [1] turned out to be 4.06 µM. Further, the Ratio IC50 in the data set listed under Homo sapiens is 10.

For the compound `CCN(c1cc(-c2ccc(CN3CCN(C)CC3)cc2)cc(C(=O)NCc2c3c(c(C)[nH]c2=O)CCCC3)c1C)C1CCOCC1`, the solubility in data set [2] (water, read-out: solubility) was found to be 3 µg/mL (≈ 4.79 µM).

On to `CC[C@H](C)n1cc(C)c2c(C(=O)NCc3c(C)cc(C)[nH]c3=O)cc(-c3ccc(N4CCNCC4)nc3)cc21` [GSK2816126], for which the results for the IC50 with PC-3 and in the data set on SK-OV-3 were 10 µM and 10.5 µM, respectively.

In the case of `COc1cc(C)[nH]c(=O)c1CNC(=O)c1cccc2c1cc(C)n2[C@H](C)C1CCOCC1`, in data set [3], the IC50 was 0.0005 µM.

As for `Cc1ccc(C(C2=C(O)CC(C)(C)CC2=O)C2C(=O)CC(C)(C)CC2=O)s1` (stereo unspecified), the IC50 in data set [4] came to 63.9 µM.

For `Cc1cc(C)c(CNC(=O)c2cc(-c3ccc(CN4CCOCC4)cc3)cc3c2cnn3C2CCCC2)c(=O)[nH]1`, in [5], the Ki is 0.024 µM.

As to `Cc1sc(NC(=O)CCCCC(=O)Nc2sc(C)c(C)c2C(N)=O)c(C(N)=O)c1C`, the IC50 in data set [4] was 54.9 µM.

With `CC1=C(CC(=O)NCCc2c[nH]c3ccccc23)C(=O)OC2C(O)=C(O)C=CC12` (stereo unspecified), the IC50 in the data set with PC-3 came to 5.39 µM; in the data set with SK-OV-3, 7.86 µM.

Consider `Cc1cc(C)c(CNC(=O)c2c(C)cn(Cc3ccc(C(C(F)(F)F)(C(F)(F)F)C(F)(F)F)cc3)c2C)c(=O)[nH]1`, for which the IC50 in the data set on K562 amounted to 58.7 µM.

With `CCN(c1cc(-c2ccc(CN3CCOCC3)cc2)cc(C(=O)NCc2c(C)cc(C)[nH]c2=O)c1C)C1CCOCC1` [TAZEMETOSTAT], the solubility in data set [2] (buffer) stood at 185.3 µg/mL (≈ 324 µM). Moreover, the IC50 in the data set on K562 stood at 59.2 µM.

`Cc1cc(C)c(CNC(=O)c2cc(C)n(-c3cccc(N4CCCCC4)c3)c2C)c(=O)[nH]1` had an IC50 in [1] of 1.06 µM. Moreover, the Ratio IC50 in the data set listed under Homo sapiens came out at 10.

These data come from ChEMBL document CHEMBL5107967, “Targeting EZH2 for cancer therapy: From current progress to novel strategies” (Eur J Med Chem, 2022).
